Measured values reported in US9084420B2, “Amide derivative, pest control agent containing the amide derivative, and pest controlling method” (Mitsui Chemicals Agro, Inc., priority 2008, dated 2015).
Structures can show the parent of a compound that is named as a salt.

Columns and labels:
Spodoptera litura = assay: Pesticidal test against Spodoptera litura (cabbage leaf immersion); assay type: in vivo; conditions: 144 h, 2-stage larvae on treated cabbage leaf, 25° C., after 6 days, read-out: pesticidal rate
Method: (§1) Pesticidal Test Against Spodoptera litura A piece of a cabbage leaf was immersed for 30 seconds in a chemical solution in which a test compound had been diluted at a predetermined concentration, and air-dried, and then put into a 7 cm polyethylene cup having a filter paper laid on the bottom thereof, and 2-stage larvae of Spodoptera litura were released. They were left to stand in a thermostatic chamber at 25° C., and the numbers of the living pests and the dead pests were examined after 6 days. The test was carried out with five larvae per group in two replicates.

Plutella xylostella = assay: Pesticidal test against Plutella xylostella (cabbage leaf immersion); assay type: in vivo; conditions: 144 h, 3-stage larvae on treated cabbage leaf, 25° C., after 6 days, read-out: pesticidal rate
Method: as §1, with “Plutella xylostella” for “Spodoptera litura”, “3-stage” for “2-stage”

**Q.** What does the source list for Cc1cc(C(F)(C(F)(F)F)C(F)(F)F)cc(C)c1N(C)C(=O)c1cccc(N(CCS(C)(=O)=O)C(=O)c2ccccc2)c1 [5-73, N-(2,6-dimethyl-4-(perfluoropropan-2-yl)phenyl)-N-methyl-3-(N-(2-(methylsulfonyl)ethyl)benzamide)benzamide]?
**A.** pest or weed control at 100 ppm (Spodoptera litura): ≥ 70%; pest or weed control at 100 ppm (Plutella xylostella): ≥ 70%

**Q.** How did the pest or weed control at 100 ppm (Spodoptera litura) turn out when Cc1cc(C(F)(C(F)(F)F)C(F)(F)F)cc(C)c1N(C)C(=O)c1cccc(N(CC#N)C(=O)c2ccccc2)c1 [6-18, 3-(N-(cyanomethyl)benzamide)-N-(2,6-dimethyl-4-(perfluoropropan-2-yl)phenyl)-N-methylbenzamide] was run?
**A.** ≥ 70%

**Q.** And the pest or weed control at 100 ppm (Plutella xylostella)?
**A.** ≥ 70%

**Q.** Cc1cc(C(F)(C(F)(F)F)C(F)(F)F)cc(C)c1N(C)C(=O)c1cccc(N(CCCC(N)=O)C(=O)c2ccccc2)c1 [6-15, 3-(N-(4-amino-4-oxobutyl)benzamide)-N-(2,6-dimethyl-4-(perfluoropropan-2-yl)phenyl)-N-methylbenzamide] was tested. Which pest or weed control at 100 ppm (Spodoptera litura) did it give?
**A.** ≥ 70%

**Q.** What about the pest or weed control at 100 ppm (Plutella xylostella) of the same molecule?
**A.** ≥ 70%

**Q.** Cc1cc(C(F)(C(F)(F)F)C(F)(F)F)cc(C)c1N(C)C(=O)c1cccc(N(C[S+](C)[O-])C(=O)c2ccccc2)c1 (centres unmarked) [6-7, N-(2,6-dimethyl-4-(perfluoropropan-2-yl)phenyl)-N-methyl-3-(N-(methylsulfinylmethyl)benzamide)benzamide] was tested. Which pest or weed control at 100 ppm (Spodoptera litura) did it give?
**A.** ≥ 70%

**Q.** And the pest or weed control at 100 ppm (Plutella xylostella)?
**A.** ≥ 70%

**Q.** Which pest or weed control at 100 ppm (Spodoptera litura) does the source give for Cc1cc(C(F)(C(F)(F)F)C(F)(F)F)cc(C)c1N(CC(N)=O)C(=O)c1cccc(N(C)C(=O)c2ccccc2)c1F [7-220, N-(2-amino-2-oxoethyl)-N-(2,6-dimethyl-4-(perfluoropropan-2-yl)phenyl)-2-fluoro-3-(N-methylbenzamide)benzamide] here?
**A.** ≥ 70%

**Q.** What about the pest or weed control at 100 ppm (Plutella xylostella) of the same molecule?
**A.** ≥ 70%

**Q.** With CNC(=O)NCCCN(C(=O)c1ccccc1)c1cccc(C(=O)Nc2c(C)cc(C(F)(C(F)(F)F)C(F)(F)F)cc2C)c1 [6-49, N-(3-(2,6-dimethyl-4-(perfluoropropan-2-yl)phenylcarbamoyl)phenyl)-N-(3-(3-methylureido)propyl)benzamide] as the molecule, how does the pest or weed control at 100 ppm (Spodoptera litura) read?
**A.** ≥ 70%

**Q.** What about the pest or weed control at 100 ppm (Plutella xylostella) of the same molecule?
**A.** ≥ 70%

**Q.** For Cc1cc(C(F)(C(F)(F)F)C(F)(F)F)cc(C)c1N(CCO)C(=O)c1cccc(N(C)C(=O)c2ccccc2)c1F [7-23, N-(2,6-dimethyl-4-(perfluoropropan-2-yl)phenyl)-2-fluoro-N-(2-hydroxyethyl)-3-(N-methylbenzamide)benzamide], which pest or weed control at 100 ppm (Plutella xylostella) is on record?
**A.** ≥ 70%

**Q.** How did the pest or weed control at 100 ppm (Spodoptera litura) turn out when Cc1cc(C(F)(C(F)(F)F)C(F)(F)F)cc(C)c1NC(=O)c1cccc(N(CCC(=O)NN)C(=O)c2ccc(C#N)cc2)c1F [5-83, 3-(4-cyano-N-(3-hydrazinyl-3-oxopropyl)benzamide)-N-(2,6-dimethyl-4-(perfluoropropan-2-yl)phenyl)-2-fluorobenzamide] was run?
**A.** ≥ 70%

**Q.** And the pest or weed control at 100 ppm (Plutella xylostella)?
**A.** ≥ 70%

**Q.** CSCN(C(=O)c1ccccc1)c1cccc(C(=O)N(C)c2c(C)cc(C(F)(C(F)(F)F)C(F)(F)F)cc2C)c1 [6-6, N-(2,6-dimethyl-4-(perfluoropropan-2-yl)phenyl)-N-methyl-3-(N-(methylthiomethyl)benzamide)benzamide] was tested. Which pest or weed control at 100 ppm (Spodoptera litura) did it give?
**A.** ≥ 70%

**Q.** What about the pest or weed control at 100 ppm (Plutella xylostella) of the same molecule?
**A.** ≥ 70%

**Q.** How did the pest or weed control at 100 ppm (Plutella xylostella) turn out when COC(=O)CCN(C(=O)c1cccc(NC(=O)c2ccccc2)c1)c1c(C)cc(C(F)(C(F)(F)F)C(F)(F)F)cc1C [7-6, methyl 3-(3-benzamide-N-(2,6-dimethyl-4-(perfluoropropan-2-yl)phenyl)benzamide)propanoate] was run?
**A.** ≥ 70%

**Q.** Which pest or weed control at 100 ppm (Spodoptera litura) does the source give for Cc1cc(C(F)(C(F)(F)F)C(F)(F)F)cc(C)c1NC(=O)c1cccc(N(CCCN/C(N)=N/[N+](=O)[O-])C(=O)c2ccccc2)c1 [6-61, N-(3-(2,6-dimethyl-4-(perfluoropropan-2-yl)phenylcarbamoyl)phenyl)-N-(3-(2-nitroguanidino)propyl)benzamide] here?
**A.** ≥ 70%

**Q.** How did the pest or weed control at 100 ppm (Spodoptera litura) turn out when Cc1cc(C(F)(C(F)(F)F)C(F)(F)F)cc(C)c1N(C)C(=O)c1cccc(N(CC[S+](C)[O-])C(=O)c2ccccc2)c1 (centres unmarked) [5-72, N-(2,6-dimethyl-4-(perfluoropropan-2-yl)phenyl)-N-methyl-3-(N-(2-(methylsulfinyl)ethyl)benzamide)benzamide] was run?
**A.** ≥ 70%

**Q.** And the pest or weed control at 100 ppm (Plutella xylostella)?
**A.** ≥ 70%

**Q.** COC(=O)CCCN(C(=O)c1ccccc1)c1cccc(C(=O)N(C)c2c(C)cc(C(F)(C(F)(F)F)C(F)(F)F)cc2C)c1 [6-13, methyl 4-(N-(3-((2,6-dimethyl-4-(perfluoropropan-2-yl)phenyl)(methyl)carbamoyl)phenyl)benzamide)butanoate] was tested. Which pest or weed control at 100 ppm (Plutella xylostella) did it give?
**A.** ≥ 70%

**Q.** Which pest or weed control at 100 ppm (Spodoptera litura) does the source give for Cc1cc(C(F)(C(F)(F)F)C(F)(F)F)cc(C)c1N(CC(=O)O)C(=O)c1cccc(N(C)C(=O)c2ccccc2)c1F [7-222, 2-(N-(2,6-dimethyl-4-(perfluoropropan-2-yl)phenyl)-2-fluoro-3-(N-methylbenzamide)benzamide)acetic acid] here?
**A.** ≥ 70%

**Q.** What about the pest or weed control at 100 ppm (Plutella xylostella) of the same molecule?
**A.** ≥ 70%

**Q.** CSCCN(C(=O)c1ccccc1)c1cccc(C(=O)N(C)c2c(C)cc(C(F)(C(F)(F)F)C(F)(F)F)cc2C)c1 [5-71, N-(2,6-dimethyl-4-(perfluoropropan-2-yl)phenyl)-N-methyl-3-(N-(2-(methylthio)ethyl)benzamide)benzamide] was tested. Which pest or weed control at 100 ppm (Spodoptera litura) did it give?
**A.** ≥ 70%

**Q.** And the pest or weed control at 100 ppm (Plutella xylostella)?
**A.** ≥ 70%

**Q.** With O=C(O)CCN(C(=O)c1ccccc1)c1cccc(C(=O)Nc2c(I)cc(C(F)(C(F)(F)F)C(F)(F)F)cc2C(F)(F)F)c1 [5-88, 3-(N-(3-(2-iodo-4-(perfluoropropan-2-yl)-6-(trifluoromethyl)phenylcarbamoyl)phenyl)benzamide)propanoic acid] as the molecule, how does the pest or weed control at 100 ppm (Spodoptera litura) read?
**A.** ≥ 70%

**Q.** And the pest or weed control at 100 ppm (Plutella xylostella)?
**A.** ≥ 70%

**Q.** With Cc1cc(C(F)(C(F)(F)F)C(F)(F)F)cc(C)c1NC(=O)c1cccc(N(CCC(N)=O)C(=O)c2ccccc2)c1 [1-1, N-(3-amino-3-oxopropyl)-N-(3-(2,6-dimethyl-4-(perfluoropropan-2-yl)phenylcarbamoyl)phenyl)benzamide] as the molecule, how does the pest or weed control at 100 ppm (Spodoptera litura) read?
**A.** ≥ 70%

**Q.** What about the pest or weed control at 100 ppm (Plutella xylostella) of the same molecule?
**A.** ≥ 70%

**Q.** For COC(=O)CCN(C(=O)c1ccccc1)c1cccc(C(=O)Nc2c(C)cc(C(F)(C(F)(F)F)C(F)(F)F)cc2C)c1 [5-1, methyl 3-(N-(3-(2,6-dimethyl-4-(perfluoropropan-2-yl)phenylcarbamoyl)phenyl)benzamide)propanoate], which pest or weed control at 100 ppm (Spodoptera litura) is on record?
**A.** ≥ 70%

**Q.** And the pest or weed control at 100 ppm (Plutella xylostella)?
**A.** ≥ 70%

**Q.** Which pest or weed control at 100 ppm (Spodoptera litura) does the source give for Cc1cc(C(F)(C(F)(F)F)C(F)(F)F)cc(C)c1N(C)C(=O)c1cccc(N(CCO)C(=O)c2ccccc2)c1 [5-35, N-(2,6-dimethyl-4-(perfluoropropan-2-yl)phenyl)-3-(N-(2-hydroxyethyl)benzamide)-N-methylbenzamide] here?
**A.** ≥ 70%

**Q.** What about the pest or weed control at 100 ppm (Plutella xylostella) of the same molecule?
**A.** ≥ 70%

**Q.** For Cc1cc(C(F)(C(F)(F)F)C(F)(F)F)cc(C)c1NC(=O)c1cccc(N(CCC(=O)OCC(N)C(=O)O)C(=O)c2ccccc2)c1 (centres unmarked) [5-25, 2-amino-3-(3-(N-(3-(2,6-dimethyl-4-(perfluoropropan-2-yl)phenylcarbamoyl)phenyl)benzamide)propanoyloxy)propanoic acid hydrochloric acid salt], which pest or weed control at 100 ppm (Spodoptera litura) is on record?
**A.** ≥ 70%

**Q.** And the pest or weed control at 100 ppm (Plutella xylostella)?
**A.** ≥ 70%

**Q.** Which pest or weed control at 100 ppm (Spodoptera litura) does the source give for Cc1cc(C(F)(C(F)(F)F)C(F)(F)F)cc(C)c1NC(=O)c1cccc(N(CCCN)C(=O)c2ccccc2)c1 [6-20, N-(3-aminopropyl)-N-(3-(2,6-dimethyl-4-(perfluoropropan-2-yl)phenylcarbamoyl)phenyl)benzamide] here?
**A.** ≥ 70%

**Q.** What about the pest or weed control at 100 ppm (Plutella xylostella) of the same molecule?
**A.** ≥ 70%

**Q.** How did the pest or weed control at 100 ppm (Spodoptera litura) turn out when COC(=O)CN(C(=O)c1ccccc1)c1cccc(C(=O)N(CC(=O)OC)c2c(C)cc(C(F)(C(F)(F)F)C(F)(F)F)cc2C)c1F [8-12, methyl 2-(N-(3((2,6-dimethyl-4-(perfluoropropan-2-yl)phenyl)(2-methoxy-2-oxoethyl)carbamoyl)-2-fluorophenyl)benzamide)acetate] was run?
**A.** ≥ 70%

**Q.** And the pest or weed control at 100 ppm (Plutella xylostella)?
**A.** ≥ 70%

**Q.** Which results are given for Cc1cc(C(F)(C(F)(F)F)C(F)(F)F)cc(C)c1N(CCC(N)=O)C(=O)c1cccc(NC(=O)c2ccccc2)c1 [7-1, N-(3-amino-3-oxopropyl)-3-benzamide-N-(2,6-dimethyl-4-(perfluoropropan-2-yl)phenyl)benzamide]?
**A.** pest or weed control at 100 ppm (Spodoptera litura): ≥ 70%; pest or weed control at 100 ppm (Plutella xylostella): ≥ 70%

**Q.** For COC(=O)CN(C(=O)c1ccccc1)c1cccc(C(=O)N(C)c2c(C)cc(C(F)(C(F)(F)F)C(F)(F)F)cc2C)c1 [6-1, methyl 2-(N-(3((2,6-dimethyl-4-(perfluoropropan-2-yl)phenyl)(methyl)carbamoyl)phenyl)benzamide)acetate], which pest or weed control at 100 ppm (Spodoptera litura) is on record?
**A.** ≥ 70%

**Q.** What about the pest or weed control at 100 ppm (Plutella xylostella) of the same molecule?
**A.** ≥ 70%

**Q.** Which pest or weed control at 100 ppm (Plutella xylostella) does the source give for Cc1cc(C(F)(C(F)(F)F)C(F)(F)F)cc(C)c1N(CC(=O)O)C(=O)c1cccc(N(CC(=O)O)C(=O)c2ccccc2)c1F [8-13, 2-(N-(3((carboxymethyl)(2,6-dimethyl-4-(perfluoropropan-2-yl)phenyl)carbamoyl)-2-fluorophenyl)benzamide)acetic acid] here?
**A.** ≥ 70%

**Q.** With CS(=O)(=O)CCN(C(=O)c1cccc(NC(=O)c2ccccc2)c1F)c1c(Br)cc(C(F)(C(F)(F)F)C(F)(F)F)cc1Br [7-169, 3-benzamide-N-(2,6-dibromo-4-(perfluoropropan-2-yl)phenyl)-2-fluoro-N-(2-(methylsulfonyl)ethyl)benzamide] as the molecule, how does the pest or weed control at 100 ppm (Plutella xylostella) read?
**A.** ≥ 70%

**Q.** How did the pest or weed control at 100 ppm (Plutella xylostella) turn out when Cc1cc(C(F)(C(F)(F)F)C(F)(F)F)cc(C)c1NC(=O)c1cccc(N(CCC(=O)O)C(=O)c2ccccc2)c1 [5-4, 3-(N-(3-(2,6-dimethyl-4-(perfluoropropan-2-yl)phenylcarbamoyl)phenyl)benzamide)propanoic acid] was run?
**A.** ≥ 70%
